According to US11466020B2, “Compounds and compositions for inhibition and elimination of Zika infection and uses for same” (Cornell University, priority 2017, dated 2022):
Counter-ions that a name gives are not always drawn.

What was measured:
ZIKV MR766 = assay: Inhibition of ZIKV infection of hNPCs (high content screen / inhibitory curve, ZIKV E staining); format: cell-based, Zika virus; conditions: for ZIKV infection of hNPCs compared to DMSO controls: 72 h after ZIKV (MR766) infection; for IC50: Zika virus, hNPCs, ZIKV MR766 MOI=0.125, compound added before infection, infection rate (ZIKV E+ cells), read-out: IC50 values of anti-ZIKV activity
Procedure: A high content chemical screen identifies compounds that inhibit ZIKV infection of hNPCs. To identify drugs that inhibit ZIKV infection, we screened the Prestwick library that includes 1120 FDA-approved drug and drug candidates, selected for known bioavailability and safety in humans. To perform the screen, hNPCs seeded in 384-well plates were treated with each compound from the library or vehicle control (DMSO) for 1 hour, followed by addition of ZIKV MR766 at a MOI=0.125. After two hour of inoculation with ZIKV, the virus-containing medium was replaced by fresh virus-free medium and compounds were replenished for each well (See Methods). After an additional three days of culture, cells were fixed and stained with antibodies against the ZIKV envelop protein (ZIKV E) and a cell proliferation marker Ki67 (FIG. 1A). The percentages of ZIKV E^+ cells, Ki67^+ cells and total cell number were quantified by an automated imaging and analysis system. A two dimensional analysis was performed to choose the primary hit compounds (FIG. 5A). The X-axis represents the fold change of total cell number, which was calculated by dividing the total cell number of the chemical-treated well by the average total cell number of DMSO-treated wells. The Y-axis represents the fold change of the percentage of ZIKV infected cells, which was calculated by dividing the percentage of cells expressing ZIKV E in each chemical-treated well by the average of the percentage of cells expressing ZIKV E from DMSO-treated wells. […] Based on the fold change of the percentage of ZIKV infection, the signal-to-basal (S/B) ratio is 4.2 and the coefficient of variation (CV) is 6.9%. The Z factor is 0.59 indicating a robust screening system.
hNPCs were plated on 96-well plates at 8.5×10^4/cm^2. After overnight incubation, hNPCs were infected with ZIKV (MR766 strain, MOI=0.125) for 2 h, and changed to virus-free medium. The cells were maintained in NPC medium with daily medium change. Three days later, the supernatant and cells were collected and used for assays. hESC-derived forebrain organoids were infected with ZIKV MR766 (5×10^5 PFU/ml) for 24 h. After removal of virus containing medium, forebrain organoids were maintained in forebrain organoid medium for an additional 3 or 17 days and then used for assays.
High-content Screen. hNPCs were dissociated and plated on Matrigel-coated 384-well plates for the chemical screen. […] DMSO was used as a negative control. ZIKV MR766 was added at MOI=0.125. After 2 hour infection, the supernatant was replaced with fresh medium and compounds from the same chemical library were added to the same wells. After an additional 3 days incubation, cells were fixed, stained with antibodies against ZIKV envelop protein (ZIKV E) and proliferation marker Ki67, and analyzed with the ImageXpress^MICRO Automated High-Content Analysis System. […] X-axis represents the fold change of total cell number, which was calculated by dividing the total cell number of the chemical treated well by the average of total cell number of DMSO treated wells. Y-axis represents the fold change of the percentage of ZIKV infection, which was calculated by dividing the percentage of ZIKV infection of the chemical treated well by the average of the percentage of ZIKV infection of DMSO treated wells. The compounds in which the fold change of total cell number >1 and the fold change of the percentage of ZIKV infection <20% were further evaluated. […]

ZIKV (MR766 strain) = assay: qRT-PCR of total ZIKV vRNA in supernatant of hNPC cultures; format: cell-based, Zika virus; conditions: 72 h after infection
Procedure: (A) Scheme of high content chemical screen. (B) Chemical structure of hit compounds. (C) Inhibitory curve and IC50 of HH or AQ on hNPCs (n=6). (D-H) Immunocytochemistry analysis (D), the quantification of the infection rate (E), the quantification of proliferation rate (F), the quantification of cell apoptosis rate (G) and the normalized cell viability (H) of hNPCs at 72 h after ZIKV (MR 766 strain) infection with or without drug treatment. Scale bars, 100 μm. The ZIKV infection rate is defined as the percentage of ZIKV E^+ cells. The proliferation rate is defined as the percentages of Ki67^+ cells. The cell apoptosis rate was defined as the percentage of cleaved-Caspase 3/CAS3^+ cells. The normalized cell viability was calculated by dividing the total cell number of each condition by the total cell number under mock infection conditions. (n=6). […] (K) Quantification of ZIKV infectious particles produced by ZIKV-infected hNPCs with or without compound treatment by the Vero cell reinfection assay. […] (M and N) Immunocytochemistry analysis (M) and quantification of the infection rate (N) of hNPCs at 72 h after ZIKV (PRVABC59 strain) infection with or without drug treatment (n=6). Scale bars, 100 μm. p values were calculated by one-way repeated measures ANOVA with a Bonferroni test for multiple comparisons. *p<0.05, **p<0.01 and ***p<0.001. […]

Structure (SMILES)	ZIKV infection of hNPCs compared to DMSO controls (ZIKV MR766)	IC50 (ZIKV MR766) [µM]	production of ZIKV viral RNA (vRNA), qRT-PCR (ZIKV (MR766 strain))
CCN(CC)Cc1cc(Nc2ccnc3cc(Cl)ccc23)ccc1O [AQ, amodiaquine dihydrochloride dihydrate]	effectively inhibited ZIKV infection	6	significantly suppressed
CN1CCC2=C[C@H](O)[C@H]3OC(=O)c4cc5c(cc4[C@H]3[C@@H]21)OCO5 [HH, hippeastrine hydrobromide]	effectively inhibited ZIKV infection	5.5	significantly suppressed
